{
  "source": "patent US20040185558A1",
  "about": "“Method for culturing brain tissue in three dimensions” (priority 2003, published 2004)",
  "tested_on": "hippocampal tissue grown under SMC",
  "experiment": "field EPSP evoked by electrical stimulation in hippocampal tissue cultured 10 days under simulated microgravity conditions",
  "assay_type": "cell-based, Sprauge-Dawley rats",
  "source_text": "In order to determine whether hippocampal tissue grown under SMC is able to generate electrical signals, hippocampal tissue grown under SMC for 10 days as described was electrically stimulated and field excitatory postsynaptic potential (EPSP) recorded. […] One important characteristic of the response is the presence of paired-pulse facilitation (PPF) (FIGS. 3A and 3B). PDF have been described and characterized in acute slices from the hippocampus and are an example of frequency-dependent short-term plasticity of excitatory synapses. This phenomenon is accounted for by the residual calcium hypothesis, according to which the small fraction of calcium entering the terminal during the first spike increases the probability of transmitter release to a second action potential (Zucker, 1989). […]\nSprauge-Dawley rats (7-9 days old) are quickly decapitated and the brain is rapidly removed and placed in ice-cold Gey's solution (g/L): NaCl (7), KCl (0.37), MgSO4-7H2O (0.06), MgCl2-6H2O (0.21), KH2PO4 (0.03), Na2HPO4-7H2O (0.23), Glucose (1), CaCl2-2H2O (0.23) and NaHCO3 ([…]). […] The slices will be monitored daily and rotary speed will be adjusted in order to avoid any free falling. […]",
  "data": [
    {"smiles": "NC(CCCP(=O)(O)O)C(=O)O", "note": "(centres unmarked) [APV, amino-5-phosphonovaleric acid]", "values": [
      {"measurement": "effect on field EPSP (NMDA subtype glutamate receptor antagonist)", "setting": "100 μM APV, hippocampal tissue grown under SMC, vs no antagonist", "result": "partially block"}
    ]},
    {"smiles": "[Cl][Co][Cl]", "note": "[CoCl2, cobalt chloride]", "values": [
      {"measurement": "effect on field EPSP (dependence on voltage gated calcium current)", "setting": "perfused with 1 mM CoCl2, hippocampal tissue grown under SMC 10 days, reversible after washout", "result": "reversibly blocked"}
    ]}
  ]
}
